Assay [1] deals with 5XFAD mice. Nature of the assay: Amyloid plaque number (thioflavin T staining) in brain sections of 5XFAD mice. In kind it is in vivo, mouse. The conditions noted are these: 1 mg/kg twice a week for 3 months, versus controls. How it is done: (§1) 5XFAD mice received chronic treatments with drugs or vehicle according to 2 different protocols. In each experiment, drugs or vehicle solution were administered i.p. twice a week (1 mg/kg). In “Protocol 1”, mice (n=6-7 mice per group) were treated with compounds for two months, from 2 to 4 months of age. In “Protocol 2”, mice (n=7) were treated with compounds for three months, from 1 month to 4 months of age. At the end of each protocol, mice were anesthetized with a mixture of 100 mg/kg ketamine and 10 mg/kg xylazine in saline solution and perfused transcardially with PBS. Brains were quickly isolated on ice, the olfactory bulbs and cerebellum removed and the two hemispheres divided. One hemisphere was frozen on dry ice and stored at −80° C. for biochemical analysis, while the other was post-fixed in 4% PFA for immunohistochemistry (IHC).
Thirty-micrometer-thick sections were cut using a vibratome (Microm HM 650V, Thermo Scientific, Saint Herblain, France) and stored in cryoprotectant medium at −20° C. […]
Images were acquired with an Axiolmager Z1 microscope (Carl Zeiss S.A.S., Marly le Roi, France). […] GFAP expression was quantified using Image J software and results are expressed as area fractions. […]

Assay [2] relates to 5XFAD mice. Nature of the assay: Astrogliosis (GFAP staining) in brain sections of 5XFAD mice. In kind it is in vivo, mouse. The conditions noted are these: 1 mg/kg twice a week for 3 months, versus controls. As to the method: as §1
Thirty-micrometer-thick sections were cut using a vibratome (Microm HM 650V, Thermo Scientific, Saint Herblain, France) and stored in cryoprotectant medium at −20° C. For the labeling of amyloid plaques, free-floating tissue sections of frontal cortex, hippocampus and entorhinal cortex (coordinates from the bregma: frontal cortex=1.98 mm, hippocampus=−1.94 mm, entorhinal cortex=−3.08 mm) were extensively washed in PBS and then incubated in blocking solution (PBS; 3% BSA; 0.1% Triton X-100) for 1 h. Sections were stained with Hoechst dye (1:1000, Life Technologies, Saint Aubin, France) for 15 minutes to detect cell nuclei and then with freshly prepared thioflavin T solution (#T3516-5G, Sigma-Aldrich) (final concentration: 0.01 mg/ml in blocking buffer) for 15 minutes. After washing in 70% ethanol for 5 minutes, samples were mounted on poly-lysine slides with coverslips. For GFAP (glial fibrillary acidic protein) staining, free-floating brain sections were blocked as before and incubated with polyclonal rabbit anti-GFAP (1:1000, Z0334, Dako, Les Ullis, France) at 4° C. overnight. After thioflavin T staining and washing with 70% ethanol, the secondary Alexafluor 594 goat anti-rabbit antibody (1:1000, A11012, Life Technologies) was added for 2 h. PBS washes and mounting were performed as described before.
Images were acquired with an Axiolmager Z1 microscope (Carl Zeiss S.A.S., Marly le Roi, France). Analysis of thioflavin T staining was performed blindly and data are presented as the mean number of particles per mm^2 in two to three tissue sections from the same brain area/animal (Image J software). GFAP expression was quantified using Image J software and results are expressed as area fractions.
28 female 5XFAD mice (C57BL/6J genetic background) were used in this study. Mice received vehicle or compounds (1 mg/kg) i.p., twice a week for three months, from 1 to 4 months of age.

Regarding `CCCCN1CCC(CCC(=O)c2cc(Cl)c(N)cc2OC)CC1` [RS67333, 1-(4-amino-5-chloro-2-methoxy-phenyl)-3-(1-butyl-4-piperidinyl)-1-propanone], the “Amyloid plaque number in hippocampus” value in the assay with 5XFAD mice [1] is reported as “not significantly different compared to controls”. In the assay on 5XFAD mice [2], the “GFAP staining in frontal cortex” value is given as “not significantly different compared to controls” and the “GFAP staining in hippocampus” value is “not significantly different compared to controls”.

For the origin of these results see patent publication US20210338647A1, “Combination of Acetylcholinesterase Inhibitor and 5-HT4 Receptor Agonist As Neuroprotective Agent In the Treatment of Neurodegenerative Diseases” (UNIVERSITE DE CAEN NORMANDIE, priority 2018, published 2021).
